{"source": "patent US7655252B2", "about": "(priority 1999, dated 2010)", "system": "Influenza virus A/AA/6/60", "type": "cell-based", "data": [{"substance": "t-octylphenoxypolyethoxyethanol [TRITON X-100]", "values": [{"measurement": "inhibition of the infectivity of virus", "result": "only partially inhibited"}, {"measurement": "reduction of influenza A infection of MDCK cells", "setting": "30 min", "result": "completely ineffective"}]}]}
